One test concerns the target Kir3.1(E141A/D173A) (Homo sapiens, UniProt P48544+P48549, D173A/E141A). The class given is cell-based. The settings on record: 1 μM, TEVC.
The next test deals with Kir3.1(T143A)/4 (Homo sapiens, UniProt P48544+P48549, T143A). Type of test: cell-based. Particulars: 1 μM, TEVC.
In test [1] the test system is Kir2.1, Kir2.3, Kir3.1∗, Kir3.2∗, Kir3.4∗, Kir3.1∗/Kir3.2 and Kir3.1∗/Kir3.4. The experiment in a line: TEVC in Xenopus oocytes, selectivity over other Kir channels. Type of test: cell-based. The settings on record: 1 μM.
The target of another test is T1, Kir6.2/SUR2A (Homo sapiens, UniProt O60706+Q14654).
T1 construct: Andrew Tinker, UCL; host or cells: HEK293
The experiment in a line: Cloned cardiac ion channel patch clamp, Kir6.2/SUR2A. Type of test: cell-based. A general note: Patch clamp records ionic current or voltage across a cell membrane.

The target of a further test is Kir6.1/SUR2B (Homo sapiens, UniProt O60706+Q15842). The experiment in a line: Cloned cardiac ion channel electrophysiology, Kir6.1/SUR2B. The class given is cell-based. How it is done:
page 24: APPENDIX 4- EQUATIONS %Inhibition = (1 - IIntervention/IControl) × 100 Equation 1 - Percentage Inhibition Inhibition of current (or leak-subtracted current) was calculated from steady-state current recorded in the absence (IControl) and presence of test-article (IIntervention). […]

For the next test, the target named is T2, Histamine H2 (Homo sapiens, UniProt P25021).
T2 construct: expressed in transfected cells; host or cells: CHO cells
The test can be described thus: Radioligand binding, [125I]APT. Particulars: read-out: % Specific Binding at 10 µM.

The next test relates to sigma (non-selective). The test can be described thus: Radioligand binding, [3H]DTG, Jurkat cells (endogenous). The settings on record: listed as Benzopyran-G1.
The test system of another test is Ca. The test can be described thus: Radioligand binding. Particulars: listed as Benzopyran-G1.
Another test concerns the target T3, Kir3.1/4 channel (Homo sapiens, UniProt P48544+P48549).
T3 sequence (P48549 1-501): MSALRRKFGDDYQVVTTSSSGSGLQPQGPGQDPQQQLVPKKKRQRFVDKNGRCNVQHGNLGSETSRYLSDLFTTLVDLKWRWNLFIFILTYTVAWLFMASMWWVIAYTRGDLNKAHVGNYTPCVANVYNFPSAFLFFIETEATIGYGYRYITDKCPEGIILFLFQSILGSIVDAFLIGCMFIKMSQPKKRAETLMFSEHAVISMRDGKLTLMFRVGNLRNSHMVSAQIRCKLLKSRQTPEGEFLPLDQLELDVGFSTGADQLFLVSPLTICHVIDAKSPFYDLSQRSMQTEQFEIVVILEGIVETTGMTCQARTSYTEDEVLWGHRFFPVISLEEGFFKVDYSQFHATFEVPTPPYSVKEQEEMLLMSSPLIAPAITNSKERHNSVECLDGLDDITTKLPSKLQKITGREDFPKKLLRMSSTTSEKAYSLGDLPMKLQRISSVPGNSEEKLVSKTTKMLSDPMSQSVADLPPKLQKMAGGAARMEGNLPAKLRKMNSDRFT
T3 sequence (P48544 1-419): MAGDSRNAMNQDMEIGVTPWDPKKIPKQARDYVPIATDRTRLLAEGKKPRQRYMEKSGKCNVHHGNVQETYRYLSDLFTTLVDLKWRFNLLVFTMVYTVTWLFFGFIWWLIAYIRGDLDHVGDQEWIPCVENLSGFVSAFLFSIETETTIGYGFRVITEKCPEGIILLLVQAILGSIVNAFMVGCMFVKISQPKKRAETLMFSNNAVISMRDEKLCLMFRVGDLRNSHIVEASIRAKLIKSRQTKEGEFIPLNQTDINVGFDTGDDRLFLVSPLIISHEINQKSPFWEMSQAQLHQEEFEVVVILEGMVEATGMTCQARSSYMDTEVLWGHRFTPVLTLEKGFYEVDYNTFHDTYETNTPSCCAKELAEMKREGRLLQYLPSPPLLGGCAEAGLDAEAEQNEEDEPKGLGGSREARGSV
The test can be described thus: Whole-cell patch clamp, HEK293T cells, Kir3.1/4. Type of test: cell-based. The arrangement: expressed in transfected cells. The settings on record: whole-cell patch-clamp HEK-293 cells; read-out: IC50, inhibition of Kir3.1/4. How it is done: For the experiments shown in Figure 1, G and H, whole-cell currents were recorded with an Axopatch 200B amplifier and pCLAMP software (Molecular Devices). HEK293T cells were transiently transfected with 1 μg Kir3.1 together with 1 μg Kir3.2 or 1 μg Kir3.4 DNA, using polyethylenimine (PEI). The cells were maintained in DMEM supplemented with 10% Fetal Bovine Serum and 1% Penicillin/Streptomycin at 37 °C in a 5% CO2 humidified atmosphere and were studied 24 to 48 h after transfection. HEK293T cells were bathed in Low K^+ (LK) solution (135 mM NaCl, 5 mM KCl, 1.2 mM MgCl2, 1.5 mM CaCl2, 8 mM Glucose, 10 mM HEPES with pH 7.4). High K^+ (HK) solution (5 mM NaCl, 135 mM KCl, 1.2 mM MgCl2, 1.5 mM CaCl2, 8 mM Glucose, 10 mM HEPES with pH 7.4) was perfused to establish basal currents. BP-G1 in HK solution was perfused sequentially in a concentration response manner prior to applying 5 mM BaCl2 in HK to identify remaining barium-insensitive leak currents and subtract them from the current records. […] Cells used in the experiments were selected based on eGFP fluorescence. A ramp protocol from −80 mV to +80 mV was used and currents were recorded at −80 mV in the whole-cell mode (using the Strathclyde Electrophysiology Software from the University of Strathclyde, Glasgow). The patch-clamp data were analyzed offline in pClamp (Molecular Devices) and OriginLab software. […]

Where “and” joins values, the source holds several entries; their conditions need not be identical. Equal values may be shown once. Entries after “also recorded” stand apart in the source; their conditions may differ. Some results are limits rather than exact numbers.

Kir3.1(E141A/D173A), sequence (P48549 whole entry E141A/D173A, one chain of several): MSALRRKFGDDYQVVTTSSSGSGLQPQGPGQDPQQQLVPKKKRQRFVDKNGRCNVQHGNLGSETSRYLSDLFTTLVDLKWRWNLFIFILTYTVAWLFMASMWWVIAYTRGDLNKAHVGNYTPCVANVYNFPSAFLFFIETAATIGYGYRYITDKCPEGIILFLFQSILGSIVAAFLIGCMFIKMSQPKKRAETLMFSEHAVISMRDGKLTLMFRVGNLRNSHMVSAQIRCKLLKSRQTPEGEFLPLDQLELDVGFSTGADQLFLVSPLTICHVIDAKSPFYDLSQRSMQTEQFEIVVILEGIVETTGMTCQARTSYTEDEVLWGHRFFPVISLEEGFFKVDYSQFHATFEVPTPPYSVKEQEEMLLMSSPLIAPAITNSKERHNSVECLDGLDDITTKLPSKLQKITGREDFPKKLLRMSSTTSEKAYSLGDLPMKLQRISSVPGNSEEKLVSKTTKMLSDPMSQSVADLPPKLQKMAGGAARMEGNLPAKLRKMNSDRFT
Kir3.1(T143A)/4, sequence (P48549 whole entry T143A, one chain of several): as the sequence (P48549 whole entry E141A/D173A, one chain of several) above, with A141E, T143A, A173D counted along it
T2 sequence (P25021 whole entry): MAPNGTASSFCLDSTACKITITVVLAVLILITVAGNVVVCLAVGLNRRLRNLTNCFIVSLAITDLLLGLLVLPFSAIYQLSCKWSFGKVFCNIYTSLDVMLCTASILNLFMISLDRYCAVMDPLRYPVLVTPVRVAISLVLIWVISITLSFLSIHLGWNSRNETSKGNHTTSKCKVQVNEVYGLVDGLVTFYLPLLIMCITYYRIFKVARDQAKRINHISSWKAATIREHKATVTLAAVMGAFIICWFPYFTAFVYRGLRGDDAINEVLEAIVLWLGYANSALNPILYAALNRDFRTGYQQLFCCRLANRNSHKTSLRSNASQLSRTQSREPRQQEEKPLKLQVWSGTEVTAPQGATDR
T1 sequence (Q14654 whole entry): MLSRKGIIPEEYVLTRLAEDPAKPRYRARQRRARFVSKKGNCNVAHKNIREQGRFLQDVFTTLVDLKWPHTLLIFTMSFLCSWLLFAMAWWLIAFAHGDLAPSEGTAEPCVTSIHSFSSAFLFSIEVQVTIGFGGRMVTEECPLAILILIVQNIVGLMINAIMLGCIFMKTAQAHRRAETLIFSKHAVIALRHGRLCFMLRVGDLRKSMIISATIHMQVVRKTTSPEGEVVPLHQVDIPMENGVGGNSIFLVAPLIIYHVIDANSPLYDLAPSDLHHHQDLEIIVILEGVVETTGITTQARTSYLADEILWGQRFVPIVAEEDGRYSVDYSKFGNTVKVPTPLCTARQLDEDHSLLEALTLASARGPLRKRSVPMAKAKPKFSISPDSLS
T1 sequence (O60706 whole entry): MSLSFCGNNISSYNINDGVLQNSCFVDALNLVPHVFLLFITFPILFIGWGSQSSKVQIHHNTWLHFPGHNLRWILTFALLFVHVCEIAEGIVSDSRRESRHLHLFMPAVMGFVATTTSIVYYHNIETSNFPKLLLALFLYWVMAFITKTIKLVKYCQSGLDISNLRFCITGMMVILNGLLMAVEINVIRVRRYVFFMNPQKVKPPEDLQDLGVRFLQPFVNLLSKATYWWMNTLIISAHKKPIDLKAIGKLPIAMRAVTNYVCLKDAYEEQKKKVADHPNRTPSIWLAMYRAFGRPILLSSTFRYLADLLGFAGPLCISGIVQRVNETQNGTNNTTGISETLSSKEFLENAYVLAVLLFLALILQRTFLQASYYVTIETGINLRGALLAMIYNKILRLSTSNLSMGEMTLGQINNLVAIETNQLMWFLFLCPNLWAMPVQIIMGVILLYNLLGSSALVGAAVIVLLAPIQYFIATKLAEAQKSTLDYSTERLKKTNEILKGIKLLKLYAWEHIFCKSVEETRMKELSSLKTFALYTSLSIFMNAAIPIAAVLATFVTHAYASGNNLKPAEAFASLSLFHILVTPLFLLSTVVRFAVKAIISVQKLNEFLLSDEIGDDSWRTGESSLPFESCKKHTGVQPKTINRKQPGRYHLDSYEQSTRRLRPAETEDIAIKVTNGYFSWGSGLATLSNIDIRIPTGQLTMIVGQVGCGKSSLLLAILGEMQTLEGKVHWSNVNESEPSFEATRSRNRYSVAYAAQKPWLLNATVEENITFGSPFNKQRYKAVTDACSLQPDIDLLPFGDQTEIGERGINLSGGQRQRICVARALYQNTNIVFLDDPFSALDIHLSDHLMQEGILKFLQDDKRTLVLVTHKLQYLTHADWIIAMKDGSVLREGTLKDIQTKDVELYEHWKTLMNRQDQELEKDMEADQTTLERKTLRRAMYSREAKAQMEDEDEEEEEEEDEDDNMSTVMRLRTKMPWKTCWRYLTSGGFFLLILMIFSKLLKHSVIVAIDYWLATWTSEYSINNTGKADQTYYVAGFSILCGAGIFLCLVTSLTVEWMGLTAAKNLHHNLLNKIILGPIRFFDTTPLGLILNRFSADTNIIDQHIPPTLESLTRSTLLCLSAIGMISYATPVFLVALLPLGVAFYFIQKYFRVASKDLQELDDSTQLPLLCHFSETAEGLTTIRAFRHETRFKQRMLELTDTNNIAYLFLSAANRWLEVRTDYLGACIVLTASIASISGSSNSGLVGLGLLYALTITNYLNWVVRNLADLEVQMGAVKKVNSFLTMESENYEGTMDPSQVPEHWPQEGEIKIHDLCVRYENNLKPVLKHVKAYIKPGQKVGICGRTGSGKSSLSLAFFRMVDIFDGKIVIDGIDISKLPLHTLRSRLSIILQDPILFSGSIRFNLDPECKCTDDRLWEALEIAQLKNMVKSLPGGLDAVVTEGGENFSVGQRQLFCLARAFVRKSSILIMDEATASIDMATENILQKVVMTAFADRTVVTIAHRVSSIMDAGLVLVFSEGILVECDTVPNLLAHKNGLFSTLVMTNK
Kir6.1/SUR2B, sequence (Q15842 whole entry): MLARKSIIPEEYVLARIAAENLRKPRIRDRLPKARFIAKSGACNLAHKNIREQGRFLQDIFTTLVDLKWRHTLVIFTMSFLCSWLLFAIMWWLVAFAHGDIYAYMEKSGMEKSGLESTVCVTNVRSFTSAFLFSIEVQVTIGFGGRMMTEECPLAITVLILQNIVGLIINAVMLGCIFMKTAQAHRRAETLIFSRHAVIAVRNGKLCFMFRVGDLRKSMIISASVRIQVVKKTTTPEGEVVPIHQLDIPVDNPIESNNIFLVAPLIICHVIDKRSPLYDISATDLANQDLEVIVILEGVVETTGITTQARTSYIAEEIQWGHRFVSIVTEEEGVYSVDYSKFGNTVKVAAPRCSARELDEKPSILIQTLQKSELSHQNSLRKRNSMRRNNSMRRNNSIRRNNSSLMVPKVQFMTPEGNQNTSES
Kir6.1/SUR2B, sequence (O60706 1-1549 isoform O60706-2): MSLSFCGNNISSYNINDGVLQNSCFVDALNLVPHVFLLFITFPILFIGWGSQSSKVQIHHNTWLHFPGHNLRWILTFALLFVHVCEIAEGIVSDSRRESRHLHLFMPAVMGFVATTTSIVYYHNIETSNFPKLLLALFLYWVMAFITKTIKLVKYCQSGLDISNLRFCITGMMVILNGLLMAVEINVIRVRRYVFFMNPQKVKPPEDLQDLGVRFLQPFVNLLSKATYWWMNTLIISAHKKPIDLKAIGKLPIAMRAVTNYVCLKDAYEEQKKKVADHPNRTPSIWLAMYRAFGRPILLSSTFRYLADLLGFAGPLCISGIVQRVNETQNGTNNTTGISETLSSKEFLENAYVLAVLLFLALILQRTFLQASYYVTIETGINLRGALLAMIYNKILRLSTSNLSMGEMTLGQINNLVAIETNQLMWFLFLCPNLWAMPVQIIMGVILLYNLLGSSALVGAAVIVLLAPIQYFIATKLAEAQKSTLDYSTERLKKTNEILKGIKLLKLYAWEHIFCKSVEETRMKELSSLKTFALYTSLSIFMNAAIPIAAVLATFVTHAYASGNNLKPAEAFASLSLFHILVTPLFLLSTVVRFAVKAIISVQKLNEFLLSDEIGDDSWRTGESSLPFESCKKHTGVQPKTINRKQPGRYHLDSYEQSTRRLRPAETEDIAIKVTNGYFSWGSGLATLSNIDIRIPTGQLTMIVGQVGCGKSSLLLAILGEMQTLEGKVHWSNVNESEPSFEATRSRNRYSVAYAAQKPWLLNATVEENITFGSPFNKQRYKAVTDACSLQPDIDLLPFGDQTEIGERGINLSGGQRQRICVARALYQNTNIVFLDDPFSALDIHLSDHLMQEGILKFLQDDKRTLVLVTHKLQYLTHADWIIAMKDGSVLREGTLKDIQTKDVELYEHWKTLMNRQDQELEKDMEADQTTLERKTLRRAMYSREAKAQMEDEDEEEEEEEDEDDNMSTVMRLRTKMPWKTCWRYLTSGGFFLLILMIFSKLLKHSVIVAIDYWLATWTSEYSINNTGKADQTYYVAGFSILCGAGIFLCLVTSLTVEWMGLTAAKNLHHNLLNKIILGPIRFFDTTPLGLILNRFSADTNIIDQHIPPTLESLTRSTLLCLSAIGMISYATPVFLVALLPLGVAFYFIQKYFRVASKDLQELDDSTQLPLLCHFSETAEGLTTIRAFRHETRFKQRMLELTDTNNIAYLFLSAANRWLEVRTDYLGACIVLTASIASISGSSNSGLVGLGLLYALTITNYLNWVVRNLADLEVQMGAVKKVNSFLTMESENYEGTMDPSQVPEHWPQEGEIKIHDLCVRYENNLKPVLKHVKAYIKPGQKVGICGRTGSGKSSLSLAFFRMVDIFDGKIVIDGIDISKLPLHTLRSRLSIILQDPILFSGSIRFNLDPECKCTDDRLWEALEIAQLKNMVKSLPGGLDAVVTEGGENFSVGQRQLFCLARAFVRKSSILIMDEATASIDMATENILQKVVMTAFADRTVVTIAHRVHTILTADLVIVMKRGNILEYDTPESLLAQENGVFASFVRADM

Take `Cc1cc(CO)nc2cc3c(cc12)OC(C)(C)[C@H](O)[C@H]3NCCc1ccccc1` [BP-G1, (3R,4S)-7-(hydroxymethyl)-2,2,9-trimethyl-4-(2-phenylethylamino)-3,4-dihydropyrano[2,3-g]quinolin-3-ol]: the “current block, Kir3.1(E141A/D173A)” value on Kir3.1(E141A/D173A) was “abolished any current block; also recorded: abolished the block”. Also, at Kir3.1(T143A)/4, the “block of Kir3.1(T143A)/4” value was “no significant reduction in BP-G1 block”. The “selectivity for Kir3.1-containing heteromers over other Kir channels” value in test [1] is recorded as “strong inhibitory selectivity”. Besides, the IC50 was above 10000 nM against Kir6.2/SUR2A; 9900 nM at Kir6.1/SUR2B; 10 to 30 nM and 10.5 nM at Kir3.1/4 channel. For the same molecule, on Histamine H2, the inhibition at 10 µM amounted to 35.5%. In addition, the “% Specific Binding at 10 µM” value was 40.267% and < 50% in the test on sigma (non-selective); 42.600% and < 50% in the test on Ca.

The record behind these values is paper PMC8086025, “A benzopyran with antiarrhythmic activity is an inhibitor of Kir3.1-containing potassium channels” (The Journal of Biological Chemistry, 2021).
